This experiment concerns honeybees. Briefly: honeybee repulsion experiment at feeding stations with 50% sucrose. Type of experiment: in vivo. Conditions: 2% by weight in 50% sucrose. How it is done:
FIG. 1 describes the feeding station arrangement (A and B) for the honeybee repulsion experiments described herein. As set forth in FIG. 1, panel (A) sets forth the bee cage positions on the left portion of panel (A) with the randomized feeding station positions on the right portion of panel (A). Panel (B) sets forth an alignment of the randomized feeding station positions with a distance of two meters between feeding stations. A total of eight feeding stations were evaluated at a ten meter distance in front of the respective bee hives. The feeding stations were placed two meters apart from one another.
Honeybees were trained to deep feeders (eight positions), each containing a 50% sucrose solution for one day. After the honeybees were trained to each feeder, the 50% sucrose feeder at randomized positions 1-8 was replaced with a shallow feeder containing a combination of repelling compounds and a 50% sucrose solution according to Table 5. In accordance with FIGS. 5 and 6, 2% by weight of Camphor oil (T4), Ajowan oil (T5), Camphor powder (T6), Rosemary oil (T7), and 2-Decanone (T8) in combination with a 50% sucrose treatment were added to feeders on day two.
Table 5 describes active agents evaluated for bee repulsion and their randomized feeding station positions. As described in Table 5, T1 (control), T2 (control), T3 (control), T4 (Camphor oil), T5 (Ajowan oil), T6 (Camphor powder), T7 (Rosemary oil), and T8 (2-Decanone).
FIG. 5 evaluates the number of bees visiting a respective feed station over a time interval. FIG. 6 sets forth the mean number of honeybees visiting feeding station over a period of four hours.

Turning to `CCCCCCCCC(C)=O` [2-Decanone, 2-decanone], the “repellency to honeybees visiting feeding station” value is, setting by setting: (at/after 24 hours) “exhibited repellency”; (at/after 24 hours, listed as 2-decanone) “still repellent”; (full 4 hour assessment period) “highly repellent”.

(Values after patent US20140274684A1, “Compounds, Compositions, and Methods for Altering Behavior of Insects Or Other Organisms” (BAYER CROPSCIENCE LP, priority 2013, published 2014).)
